From patent US11426371B2, “Compositions and methods for treating cancer” (University of Virginia Patent Foundation, priority 2017, dated 2022)
Where two headings read alike, the source gives them in different places.

Key:
HEL = test: Cell viability, panel of AML cell lines; format: cell-based; details: Homo sapiens, HEL cells
Procedure: (§1) Representative human AML cell lines (FIG. 2A; upper and lower panels) HL60/VCR and (FIG. 2B; upper and lower panels) OCI-AML2 were treated with SACLAC for 24 and 48 hours. Viability was assessed by MTS assay at 24 and 48 hours and apoptosis was assessed by flow cytometry at 48 hours. Upper panels represent % viability and lower panels indicate % apoptosis.
(§2) Two representative human-derived AML cell lines, HL60/VCR and OCI-AML2, are shown. These studies have been expanded to a large panel of additional human AML cell lines (n=30, Table 1).

KG1a = test: Cell viability, panel of AML cell lines; format: cell-based; details: Homo sapiens, KG-1a, KG1a cells
Procedure: as §1, §2

KGI/ABTR = test: Cell viability, panel of AML cell lines; format: cell-based; details: Homo sapiens, KGI/ABTR cells
Procedure: as §1, §2

KGIa/ABTR = test: Cell viability, panel of AML cell lines; format: cell-based; details: Homo sapiens, KGIa/ABTR cells
Procedure: as §1, §2

KGI = test: Cell viability, panel of AML cell lines; format: cell-based; details: Homo sapiens, KGI cells
Procedure: as §1, §2

Kasumi-3 = test: Cell viability, panel of AML cell lines; format: cell-based; details: Homo sapiens, Kasumi-3 cells
Procedure: as §1, §2

Kasumi-6 = test: Cell viability, panel of AML cell lines; format: cell-based; details: Homo sapiens, Kasumi-6 cells
Procedure: as §1, §2

ME-1 = test: Cell viability, panel of AML cell lines; format: cell-based; details: Homo sapiens, ME-1 cells
Procedure: as §1, §2

MV4-11 = test: Cell viability, panel of AML cell lines; format: cell-based; details: Homo sapiens, MV4-11 cells
Procedure: as §1, §2

SKNO1 = test: Cell viability, panel of AML cell lines; format: cell-based; details: Homo sapiens, SKNO-1, SKNO1 cells
Procedure: as §1, §2

THF-1 = test: Cell viability, panel of AML cell lines; format: cell-based; details: Homo sapiens, THF-1 cells
Procedure: as §1, §2

[1] = system: HL60/VCR and OCI-AML2 AML cell lines; test: Apoptosis in AML cell lines by flow cytometry; format: cell-based, human; details: 48 hours, dose-dependent
Procedure: as §1, §2

[2] = system: primary AML patient samples; test: Colony formation of primary AML patient cells; format: cell-based, human; details: over several days
Procedure: Multiple primary patient (Pt) AML cells were treated with various doses of SACLAC and assayed for apoptosis at 48 hours and colony formation over several days. […] The ordinate represents Colonies (as % of control) and the abscissa represents the concentration of SACLAC (μM). Unt=untreated; DMSO=dimethyl sulfoxide vehicle control.
Further, effects on patient samples strongly support the potential for clinical relevance of SACLAC. […] Based on the data presented here, we propose that use of SACLAC for treatment of AML is novel and clinically promising.

[3] = Solubility in vehicles for i.v. drug delivery; format: physicochemical
MV4-11 hAML xenograft = test: Human AML cell line mouse xenograft model; format: in vivo; details: 5 mg/kg i.v. daily M to F for 18 days in β-HPCD, MV4-11-engrafted NSG mice, p<0.05

CCCCCCCCCCCCCCC[C@@H](O)[C@H](CO)NC(=O)CCl [SACLAC, 2-chloro-N-((2S,3R)-1,3-dihydroxyoctadecan-2-yl)acetamide]
EC50 (HEL; 24 h, read-out: EC50 24 h): 1200 nM | EC50 (HEL; 48 h, read-out: EC50 48 h): 1600 nM | EC50 (KG1a; 24 h, read-out: EC50 24 h): 5600 nM | EC50 (KG1a; 48 h, read-out: EC50 48 h): 3500 nM | EC50 (KGI/ABTR; 24 h, read-out: EC50 24 h): 5400 nM | EC50 (KGI/ABTR; 48 h, read-out: EC50 48 h): 4100 nM | EC50 (KGIa/ABTR; 24 h, read-out: EC50 24 h): 2900 nM | EC50 (KGIa/ABTR; 48 h, read-out: EC50 48 h): 2700 nM | EC50 (KGI; 24 h, read-out: EC50 24 h): 3200 nM | EC50 (KGI; 48 h, read-out: EC50 48 h): 2700 nM | EC50 (Kasumi-3; 24 h, read-out: EC50 24 h): 500 nM | EC50 (Kasumi-3; 48 h, read-out: EC50 48 h): 700 nM | EC50 (Kasumi-6; 24 h, read-out: EC50 24 h): 2100 nM | EC50 (Kasumi-6; 48 h, read-out: EC50 48 h): 2700 nM | EC50 (ME-1; 24 h, read-out: EC50 24 h): 2100 nM | EC50 (ME-1; 48 h, read-out: EC50 48 h): 1200 nM | EC50 (MV4-11; 24 h, read-out: EC50 24 h): 2300 nM | EC50 (MV4-11; 48 h, read-out: EC50 48 h): 1300 nM | EC50 (SKNO1; 24 h, read-out: EC50 24 h): 900 nM | EC50 (SKNO1; 48 h, read-out: EC50 48 h): 800 nM | EC50 (THF-1; 24 h, read-out: EC50 24 h): 6700 nM | EC50 (THF-1; 48 h, read-out: EC50 48 h): 4800 nM | apoptosis [1]: induced apoptosis | colony formation [2]: substantially reduced colony formation | solubility in vehicles for i.v. drug delivery [3]: low solubility | leukemic burden (human CD45+ cells, YFP expression, percent double positive cells) (MV4-11 hAML xenograft): reduced leukemic burden
